Columns and labels:
[1] = target: T1, BFL-1 (BCL2A1/A1) (Homo sapiens, UniProt Q16548); details: selectivity profile; cited from earlier work
T1 sequence (Q16548 1-175): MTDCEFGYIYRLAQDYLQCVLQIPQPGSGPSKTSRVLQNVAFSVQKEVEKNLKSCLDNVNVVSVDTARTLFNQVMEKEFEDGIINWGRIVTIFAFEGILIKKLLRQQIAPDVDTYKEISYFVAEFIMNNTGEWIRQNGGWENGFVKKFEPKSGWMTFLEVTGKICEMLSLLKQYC

[2] = target: MCL-1 (Homo sapiens, UniProt Q07820); details: selectivity profile; cited from earlier work
[3] = tested on: BCL-XL-dependent cells, such as platelets; details: cited from earlier work
[4] = target: BCL-XL (Homo sapiens, UniProt Q07817); details: selectivity profile; cited from earlier work
[5] = tested on: CT26 tumor cells; assay: CT26 syngeneic mouse colon carcinoma model; format: in vivo, BALB/c female mice
Description: The CT26 cells (see Wang et al. (1995) J. Immunol. 154:4685-4692) were injected into the right flank of BALB/c female mice at a concentration of 5×10^5 cells per mouse in RPMI 1640. Tumors were monitored until the average size of all tumors reached 65-70 mm^3. […] The two 30 mpk doses were given 10 days apart. […] Mice receiving both cisplatin and Drug were administered with cisplatin (IP) according to one of the regimens described above, and with Drug A as described above. In mice receiving combination treatment, Drug A was administered one day after cisplatin. Tumors were measured in two dimensions with calipers, and tumor volume was calculated as: length×width×width×0.5, where length was the larger of the two measurements.

[6] = cited from earlier work
[7] = tested on: HL60 cells; assay: In vitro phagocytosis of HL60 cells by human monocyte-derived macrophages; format: cell-based; details: 20 nM Drug A, 125 nM venetoclax; FIG. 5A
Description: CD14^+ monocytes were purified by negative selection using the Classical Monocytes Isolation Kit, human (Miltenyi Biotec) and LS columns (Miltenyi Biotec) according to the manufacturer's protocol. CD14^+ monocytes were seeded into 150 mm tissue culture dishes (Corning) at 6 million cells per dish in 25 mL medium comprised of RPMI complete media, supplemented with 50 ng/mL M-CSF (Miltenyi Biotec), 10% human FBS serum (Thermo Fisher Scientific), 1% penicillin/streptomycin, and 1% GlutaMAX. Cells were cultured for seven to eleven days.
HL60 and OCI-AML3 cells were washed once in PBS and labeled with the Celltrace CFSE Cell Proliferation kit (Thermo Fisher Scientific) in suspension with 300 nM CFSE (carboxyfluorescein succinimidyl ester) according to the manufacturer's instructions and resuspended in RPMI complete media. […] Prior to incubation with macrophages, cells were resuspended in RPMI. Macrophages were detached from culture plates by washing once with PBS and incubation in TrypLE Select for 20 minutes at 37° C. Cells were removed with a cell scraper (Corning), washed in PBS, and resuspended in RPMI. […]
Briefly HL60 cells and OCI-AML3 cells (i.e., “target cells”) were labeled with CFSE (carboxyfluorescein succinimidyl ester) and treated with venetoclax for 48 hours. […] Macrophage cells were pelleted, stained, and analyzed via flow cytometry. […]

[8] = tested on: RS4;11 leukemia cells; assay: RS4;11 xenograft model (acute leukemia); format: in vivo, NOD-SCID female mice
Description: The RS4;11 cells (described in Stong et al. (1985) Blood. 65(1): 21-31) was injected into the right flank of NOD-SCID female mice at a concentration of 5×10^6 cells per mouse using a 1:1 matrigel (Corning) and RPMI 1640 ratio. Tumors were monitored until the average size of all tumors reached 190 mm^3. […] The formulation for Venetoclax was a ratio of DMSO:ethanol:Cremophor EL:dextrose 5% in water (D5W) was […], by volume. Venetoclax-treated mice were dosed with 250 μg of Venetoclax by oral gavage 2 times total, 3 days apart. Drug A-treated mice were dosed IP at 10 mg/kg, 4 times total, 3-4 days apart. […] Tumors were measured in two dimensions with calipers, and tumor volume was calculated as: length×width×width×0.5, where length was the larger of the two measurements.

Sequence of MCL-1 (Q07820 whole entry, species assumed): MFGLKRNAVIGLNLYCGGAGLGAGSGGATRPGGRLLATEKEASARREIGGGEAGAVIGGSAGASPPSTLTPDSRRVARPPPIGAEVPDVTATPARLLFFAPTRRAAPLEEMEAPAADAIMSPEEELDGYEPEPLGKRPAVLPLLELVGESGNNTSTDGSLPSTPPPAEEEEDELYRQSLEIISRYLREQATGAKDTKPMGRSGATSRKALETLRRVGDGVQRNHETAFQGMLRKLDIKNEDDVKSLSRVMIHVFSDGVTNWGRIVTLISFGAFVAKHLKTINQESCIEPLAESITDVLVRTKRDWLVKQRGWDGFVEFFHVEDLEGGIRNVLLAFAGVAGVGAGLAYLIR
Sequence of BCL-XL (Q07817 whole entry, species assumed): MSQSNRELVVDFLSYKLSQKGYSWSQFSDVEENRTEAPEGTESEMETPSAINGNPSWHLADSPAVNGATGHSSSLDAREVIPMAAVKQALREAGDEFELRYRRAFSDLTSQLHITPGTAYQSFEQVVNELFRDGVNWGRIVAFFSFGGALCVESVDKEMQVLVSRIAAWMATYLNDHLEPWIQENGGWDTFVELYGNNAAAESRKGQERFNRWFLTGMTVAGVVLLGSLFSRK

O=C(c1cc(-c2cc3c(cc2C(=O)N2Cc4ccccc4C[C@H]2CN2CCOCC2)OCO3)n2c1CCCC2)N(c1ccccc1)c1ccc(O)cc1 [Drug S55746, (S)—N-(4-hydroxyphenyl)-3-(6-(3-(morpholinomethyl)-1,2,3,4-tetrahydroisoquinoline-2-carbonyl)benzo[d][1,3]dioxol-5-yl)-N-phenyl-5,6,7,8-tetrahydroindolizine-1-carboxamide]
binding to BFL-1 (BCL2A1/A1) [1]: no significant binding | binding to MCL-1 [2]: no significant binding | cytotoxic activity [3]: no cytotoxic activity | affinity for BCL-XL [4]: poor affinity

N.N.[Cl][Pt][Cl] [cisplatin, dichloroplatinum diammoniate]
mice with a tumor volume<500 mm^3 ([5]; cisplatin two 5 mpk doses regimen): 10% | tumor growth ([5]; day 20, cisplatin two 5 mpk doses 10 days apart, Drug A two 30 mpk doses, FIG. 2A): inhibited somewhat

CC1(C)CCC(CN2CCN(c3ccc(C(=O)NS(=O)(=O)c4ccc(NCC5CCOCC5)c([N+](=O)[O-])c4)c(Oc4cnc5[nH]ccc5c4)c3)CC2)=C(c2ccc(Cl)cc2)C1 [venetoclax, 4-(4-{[2-(4-chlorophenyl)-4,4dimethylcyclohex-1-en-1-yl]methyl}piperazin-1-yl)-N-({3-nitro-4-[(tetrahydro-2H-pyran-4ylmethyl)amino]phenyl}sulfonyl)-2-(1H-pyrrolo[2,3-b]pyridin-5-yloxy)benzamide]
aqueous solubility [6]: very low aqueous solubility | macrophage-mediated phagocytosis of HL60 cells [7]: stimulated macrophage-mediated phagocytosis of HL60 cells | average tumor volume ([8]; Day 65, re-treated mice (n=5/group)): about 1685 mm^3 | tumor-free (TF) mice ([8]; day 41): 1 out of 10 | tumor growth (tumor volume) ([8]; venetoclax 250 μg oral gavage 2 times, Drug A 10 mg/kg IP 4 times, FIG. 1A): inhibited tumor growth

[NH2][Pt]1([NH2])[O]C(=O)C2(CCC2)C(=O)[O]1 [Carboplatin, platinum, diammine [1,1cyclobutane-dicarboxylato(2-)-0,0]-, (SP-4-2)]
aqueous solubility [6]: water-soluble

— patent US12527838B2, “Combination therapies comprising an agent that blocks the interaction between CD47 and SIRPα for treating gastric or gastroesphageal junction cancel” (ALX Oncology Inc., priority 2019, dated 2026)
